Like-named read-outs stand apart in the source and are kept apart here. A value given as a limit tells only on which side of the number the result lay.

What is called NOAEL is the highest tested level that showed no adverse finding.

For one data set, the system named is murine FRDA cell model. Particulars: cited from earlier work.
For data set [1], the system named is human fibroblast FRDA model. Particulars: cited from earlier work.
A further data set has as its system yeast model of FRDA. Particulars: cited from earlier work.
Another data set relates to murine model of FRDA. Particulars: Abeti et al. 2016; cited from earlier work.
The next data set relates to H9C2 myoblasts. Particulars: other oxidative stress paradigms; cited from earlier work.
Data set [2] relates to patient with late onset Tay-Sachs disease (LOTS). Kind of data set: Case study in a single patient with late onset Tay-Sachs disease: ADL, 25FWT, 6MWD, tolerability. The settings on record: 2.7 g BID; for Composite ADL Score: baseline 0; for 25FWT: baseline 12.7. The data set is classed as in vivo, human. An excerpt: In this example, a case study of using 11,11-D2-linoleic acid ethyl ester to treat a single patient with late onset Tay-Sachs disease (LOTS) and the study results was reported.

The conditions of data set [3]: human, in vivo. As for the experimental part:
Design/Methods: 11,11-D2-linoleic acid ethyl ester was administered to the patient at 2.7 g (BID) and periodic repeat assessments including baseline measurement of PK, activities of daily living (ADL), 25 foot walk time (25FWT), and 6 minute walk distance (6MWD) were made. In particular, ADLs were measured individually on a scale of 0-5 across a 12 element panel representing speech, strength, coordination, etc.

A further data set is described as follows: in vivo. The arrangement: species or system mice and rats. Particulars: rat. As for the experimental part: Single- and repeat-dose studies are conducted in mice and rats using both oral gavage and dietary administration of substituted compounds as described herein (e.g., D-PUFA and ester thereof) for up to 26 weeks. […] The NOAELs established in the 8- and 26-week studies correspond to an average consumption of the substituted compounds studied in the amount of ˜362 and ˜452 mg/kg, respectively. The high dose diets in these studies contained no natural LA. […] This is consistent with the substituted compounds as described herein (e.g., D-PUFA and ester thereof) (di-deutero linoleic acid) being, for dietary purposes, equivalent to and biologically interchangeable with normal dietary LA as a sole source of LA by the rats in this study. […] The body weights, organ weights, percent of each organ composed of PUFAs, distribution of PUFA species in each tissue, and the PUFA composition of red blood cells are not changed versus controls.

Data set [4] has as its system patient with Infantile Neuroaxonal Dystrophy (INAD), mutation in both copies of the PLA2G6 gene. The data set is classed as in vivo, human. From the text: (§1) A study in the fatal neurodegenerative disease, Infantile Neuroaxonal Dystrophy (INAD) was initiated in March 2017. At study onset, the subject with a genetic mutation in both copies of the PLA2G6 gene, was mostly unresponsive to stimuli and unable to perform virtually any activity. All normal development milestones previously acquired had been lost. Prognosis was that a feeding tube would be required in the near term progression of the disease. The patient received dosing of a D-PUFA (11,11-D2-linoleic acid), 1.8 g twice a day, for a six month trial under an Expanded Access (Compassionate Use) protocol. As they were unable to swallow a pill, soft gels containing the D-PUFA were placed in warm liquid (water or milk), pierced with a fork, and the active oil pressed into the liquid, which was then soaked into food or a cookie, and administered.
FIG. 1 summarizes the baseline and one year treatment status of the patient (degree of impairment: (0) for severely impaired, (+1) for moderately impaired, (+2) for mildly impaired or no impairment).
After 2 months on drug, […] regained sufficient bulbar function to terminate syringe feeding of liquids and returned to drinking from a child's sippy cup.
(§2) One month and three month plasma level of deuterated polyunsaturated fatty acid was at steady state at approximately 44% total (dietary plus modified) linoleic acid, indicating excellent uptake and absorption of a therapeutic level of drug (>˜10-15%). Deuterated arachidonic acid was observed as present in the plasma at 0.6% and 3.0% of total arachidonic acid at month one and three months; respectively.
INAD is a strictly progressive disease, only worsening with time. Stabilization of regressions and recovery of lost milestones indicated effectiveness of the test treatment in a single, severely affected INAD patient.

For data set [5] the following is noted: female, human, in vivo.
Description: as §1, §2

On to `[2H]C([2H])(/C=C\CC)/C=C\C([2H])([2H])/C=C\CCCCCCCC(=O)O` [D4-ALA, 11,11,14,14-Tetradeutero-cis,cis,cis-9,12,15-Octadecatrienoic acid], for which the cell viability entry in the data set on murine FRDA cell model is reported as “protect cells from loss of viability”; in data set [1], “rescue cells from loss of viability”. The lipid peroxidation entry in the data set on yeast model of FRDA is on record as “decreased lipid peroxidation”; with murine model of FRDA, “prevent lipid peroxidation”. In addition, the “protection against oxidative stress” value with H9C2 myoblasts is listed as “protective against oxidative stress”.

Regarding `[2H]C([2H])(/C=C\CCCCC)/C=C\CCCCCCCC(=O)OCC` [11,11-D2-linoleic acid ethyl ester], in data set [2], the disease progression result was “Early efficacy signs of inhibition of disease progression and some regression were seen”; the tolerability / toxicities result is reported as “well tolerated with no toxicities reported”. Further, in [2] (30 d), the “# of ADLs improved” value was determined as 6 and the 25FWT is 12.1 s. Also, in [2] (30 d, 12 element panel, scale 0-5), the “Composite ADL Score” value is “+6”. In data set [2] (120 d), the “# of ADLs improved” value came out at 8, the “Composite ADL Score” value is on record as “+9” and the 25FWT came out at 11.2 s. In data set [3], the “D-LA(%) D-LA + H-LA Plasma” value amounted to 36% and the “D-LA(%) D-LA + H-LA RBC” value worked out at 28%.

With `[2H]C([2H])(/C=C\CCCCC)/C=C\CCCCCCCC(=O)O` [11,11-D2-linoleic acid, 11,11-Dideutero-cis,cis-9,12-Octadecadienoic acid], in the data set “in vivo”, the NOAEL at 8 weeks is approximately 362 mg/kg and the NOAEL at 26 weeks was approximately 452 mg/kg. In addition, the “progression of disease, clinical examination” value in [4] (3 months, since start of trial, n=1) was “no progression of disease”. In data set [4] (after 6 months), the “qualitative measures in videotaped sessions (eye tracking, responsiveness, head control, lifting, reaching and grasping)” value is recorded as “improved in qualitative measures”. In [4] (human, in vivo), the “drug related adverse events” value is reported as “no drug related adverse events of any sort reported”; the safety and tolerability entry is “safe and well-tolerated”. Moreover, in [4] (parents' report at 4 months), the ability to grasp entry is “regained ability to grasp spoon and hold”; the constipation result is “constipation resolved”; the eating result was “can eat (chew and swallow) food such as banana”; the “responsiveness to verbal requests” value is on record as “newly responsive to verbal requests during therapy”. The salivation down in data set [4] (parents' report at 4 months) is listed as 99%. Moreover, in data set [4] (parents' report at 4 months, grasping and lifting rattle), the muscle strength result is listed as “better muscle strength”. Also, the ability to swallow result in [4] (parents' report at 4 months, vs. syringe feeding) is recorded as “regained ability to swallow using sipper cup”. Also, the overall patient status entry in data set [4] (starting within a month of dosing until one year) is “the patient has improved”. For the same molecule, the “deuterated arachidonic acid in plasma, of total arachidonic acid” value in data set [5] (1 month) came out at 0.6%. For the same molecule, the “deuterated arachidonic acid in plasma, of total arachidonic acid” value in data set [5] (3 months) is 3.0%. The “time to significant plasma levels and red blood cell (RBC) membrane incorporation” value in [3] was not above 1 month. The cell viability entry with murine FRDA cell model is on record as “protect cells from loss of viability”. Further, the cell viability result in [1] is “rescue cells from loss of viability”.

These data come from patent US20210252173A1, “STABILIZED POLYUNSATURATED COMPOUNDS AND USES THEREOF” (RETROTOPE, INC., priority 2018, published 2021).
